Measurements published in the NIST ThermoML archive (doi:10.1016/j.jct.2015.03.001).
Numbers after ± are expanded uncertainties.

Experiments:
[1] = relative permittivity at various frequencies (dimensionless); xn = mol fraction of the nth substance listed; settings: 99 kPa, Liquid, Frequency=2 MHz, Parallel plate capacitor
[2] = refractive index (Na D-line) (dimensionless); xn = mol fraction of the nth substance listed; settings: 99 kPa, Liquid, Abbe refractometer

`CCC(C)Cl` (configuration not stated) [2-chlorobutane] + CCCCCCC gave a relative permittivity ([1]; 283.15 K, x2 = 0) of 9.323 ± 0.093, a relative permittivity ([1]; 283.15 K, x2 = 0.0498) of 8.838 ± 0.088 and a relative permittivity ([1]; 283.15 K, x2 = 0.101) of 8.296 ± 0.083. For the same compound, the relative permittivity ([1]; 283.15 K, x2 = 0.1985) was 7.191 ± 0.072, the relative permittivity ([1]; 283.15 K, x2 = 0.3008) was 6.131 ± 0.061 and the relative permittivity ([1]; 283.15 K, x2 = 0.3994) was 5.252 ± 0.053. The relative permittivity ([1]; 283.15 K, x2 = 0.503) was 4.471 ± 0.045, the relative permittivity ([1]; 283.15 K, x2 = 0.6009) was 3.84 ± 0.038 and the relative permittivity ([1]; 283.15 K, x2 = 0.7053) was 3.268 ± 0.033. For the same compound, the relative permittivity ([1]; 283.15 K, x2 = 0.8026) was 2.79 ± 0.028, the relative permittivity ([1]; 283.15 K, x2 = 0.9027) was 2.352 ± 0.024 and the relative permittivity ([1]; 283.15 K, x2 = 0.9463) was 2.164 ± 0.022. The relative permittivity ([1]; 298.15 K, x2 = 0) was 8.652 ± 0.087, the relative permittivity ([1]; 298.15 K, x2 = 0.0498) was 8.22 ± 0.082 and the relative permittivity ([1]; 298.15 K, x2 = 0.101) was 7.73 ± 0.077. It also gave a relative permittivity ([1]; 298.15 K, x2 = 0.1985) of 6.75 ± 0.068, a relative permittivity ([1]; 298.15 K, x2 = 0.3008) of 5.792 ± 0.058 and a relative permittivity ([1]; 298.15 K, x2 = 0.3994) of 5 ± 0.05. The relative permittivity ([1]; 298.15 K, x2 = 0.503) was 4.283 ± 0.043, the relative permittivity ([1]; 298.15 K, x2 = 0.6009) was 3.698 ± 0.037 and the relative permittivity ([1]; 298.15 K, x2 = 0.7053) was 3.165 ± 0.032. It also gave a relative permittivity ([1]; 298.15 K, x2 = 0.8026) of 2.731 ± 0.027, a relative permittivity ([1]; 298.15 K, x2 = 0.9027) of 2.309 ± 0.023 and a relative permittivity ([1]; 298.15 K, x2 = 0.9463) of 2.133 ± 0.021. It also gave a relative permittivity ([1]; 313.15 K, x2 = 0) of 8.07 ± 0.081, a relative permittivity ([1]; 313.15 K, x2 = 0.0498) of 7.684 ± 0.077 and a relative permittivity ([1]; 313.15 K, x2 = 0.101) of 7.247 ± 0.072. It also gave a relative permittivity ([1]; 313.15 K, x2 = 0.1985) of 6.373 ± 0.064, a relative permittivity ([1]; 313.15 K, x2 = 0.3008) of 5.51 ± 0.055 and a relative permittivity ([1]; 313.15 K, x2 = 0.3994) of 4.774 ± 0.048. It also gave a relative permittivity ([1]; 313.15 K, x2 = 0.503) of 4.1 ± 0.041, a relative permittivity ([1]; 313.15 K, x2 = 0.6009) of 3.56 ± 0.036 and a relative permittivity ([1]; 313.15 K, x2 = 0.7053) of 3.063 ± 0.031. For the same compound, the relative permittivity ([1]; 313.15 K, x2 = 0.8026) was 2.659 ± 0.027, the relative permittivity ([1]; 313.15 K, x2 = 0.9027) was 2.276 ± 0.023 and the relative permittivity ([1]; 313.15 K, x2 = 0.9463) was 2.108 ± 0.021. It also gave a refractive index ([2]; 283.15 K, x2 = 0) of 1.40226 ± 0.00031, a refractive index ([2]; 283.15 K, x2 = 0.0483) of 1.40141 ± 0.00031 and a refractive index ([2]; 283.15 K, x2 = 0.1024) of 1.40056 ± 0.00031. The refractive index ([2]; 283.15 K, x2 = 0.2021) was 1.39912 ± 0.00031, the refractive index ([2]; 283.15 K, x2 = 0.303) was 1.39778 ± 0.00031 and the refractive index ([2]; 283.15 K, x2 = 0.4031) was 1.3966 ± 0.00031. For the same compound, the refractive index ([2]; 283.15 K, x2 = 0.5066) was 1.39562 ± 0.00031, the refractive index ([2]; 283.15 K, x2 = 0.5998) was 1.39489 ± 0.00031 and the refractive index ([2]; 283.15 K, x2 = 0.7051) was 1.39429 ± 0.00031. It also gave a refractive index ([2]; 283.15 K, x2 = 0.8055) of 1.39382 ± 0.00031, a refractive index ([2]; 283.15 K, x2 = 0.9123) of 1.39337 ± 0.00031 and a refractive index ([2]; 283.15 K, x2 = 0.9433) of 1.39322 ± 0.00031. The refractive index ([2]; 298.15 K, x2 = 0) was 1.39404 ± 0.00031, the refractive index ([2]; 298.15 K, x2 = 0.0483) was 1.39319 ± 0.00031 and the refractive index ([2]; 298.15 K, x2 = 0.1024) was 1.39238 ± 0.00031. For the same compound, the refractive index ([2]; 298.15 K, x2 = 0.2021) was 1.391 ± 0.00031, the refractive index ([2]; 298.15 K, x2 = 0.303) was 1.3897 ± 0.00031 and the refractive index ([2]; 298.15 K, x2 = 0.4031) was 1.38859 ± 0.00031. It also gave a refractive index ([2]; 298.15 K, x2 = 0.5066) of 1.38765 ± 0.00031, a refractive index ([2]; 298.15 K, x2 = 0.5998) of 1.38699 ± 0.00031 and a refractive index ([2]; 298.15 K, x2 = 0.7051) of 1.38642 ± 0.00031. The refractive index ([2]; 298.15 K, x2 = 0.8055) was 1.38603 ± 0.00031, the refractive index ([2]; 298.15 K, x2 = 0.9123) was 1.38563 ± 0.00031 and the refractive index ([2]; 298.15 K, x2 = 0.9433) was 1.38549 ± 0.00031. For the same compound, the refractive index ([2]; 313.15 K, x2 = 0) was 1.38562 ± 0.00031, the refractive index ([2]; 313.15 K, x2 = 0.0483) was 1.3848 ± 0.00031 and the refractive index ([2]; 313.15 K, x2 = 0.1024) was 1.38401 ± 0.00031. It also gave a refractive index ([2]; 313.15 K, x2 = 0.2021) of 1.38268 ± 0.00031, a refractive index ([2]; 313.15 K, x2 = 0.303) of 1.38144 ± 0.00031 and a refractive index ([2]; 313.15 K, x2 = 0.4031) of 1.38038 ± 0.00031. For the same compound, the refractive index ([2]; 313.15 K, x2 = 0.5066) was 1.37951 ± 0.00031, the refractive index ([2]; 313.15 K, x2 = 0.5998) was 1.3789 ± 0.00031 and the refractive index ([2]; 313.15 K, x2 = 0.7051) was 1.37841 ± 0.00031. It also gave a refractive index ([2]; 313.15 K, x2 = 0.8055) of 1.37807 ± 0.00031, a refractive index ([2]; 313.15 K, x2 = 0.9123) of 1.37773 ± 0.00031 and a refractive index ([2]; 313.15 K, x2 = 0.9433) of 1.37761 ± 0.00031.
